Reference: patent US7998989B2, “2-Imino-1,3-thiazoline-based compounds and T-type calcium channel inhibitors containing the same” (Korea Institute of Science and Technology, priority 2007, dated 2011)

How the values were obtained:
[1] = biological target: T1, α1G T-type calcium channel (Homo sapiens, UniProt O43497); experiment: Assay for % inhibiting activity against T-type calcium channel using FDSS6000 (fluo-3 calcium imaging, KCl activation); format: cell-based; conditions: HEK293, 10 μM; HEK293 cells stably expressing α1G T-type calcium channel and Kir2.1; compounds of the examples; read-out: FDSS (% inhibition)/10uM
T1 construct: host or cells: HEK293
Method in brief: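 Percent inhibition derived from […] area against untreated control (100%), after 75 s compound pre-exposure and 75 mM KCl activation. Cells: HEK293 with stable α1G plus Kir2.1, fluo-3/AM-labelled (5 μM), assayed in pH 7.4 HEPES containing 10 mM CaCl2.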

T1 sequence (O43497 whole entry): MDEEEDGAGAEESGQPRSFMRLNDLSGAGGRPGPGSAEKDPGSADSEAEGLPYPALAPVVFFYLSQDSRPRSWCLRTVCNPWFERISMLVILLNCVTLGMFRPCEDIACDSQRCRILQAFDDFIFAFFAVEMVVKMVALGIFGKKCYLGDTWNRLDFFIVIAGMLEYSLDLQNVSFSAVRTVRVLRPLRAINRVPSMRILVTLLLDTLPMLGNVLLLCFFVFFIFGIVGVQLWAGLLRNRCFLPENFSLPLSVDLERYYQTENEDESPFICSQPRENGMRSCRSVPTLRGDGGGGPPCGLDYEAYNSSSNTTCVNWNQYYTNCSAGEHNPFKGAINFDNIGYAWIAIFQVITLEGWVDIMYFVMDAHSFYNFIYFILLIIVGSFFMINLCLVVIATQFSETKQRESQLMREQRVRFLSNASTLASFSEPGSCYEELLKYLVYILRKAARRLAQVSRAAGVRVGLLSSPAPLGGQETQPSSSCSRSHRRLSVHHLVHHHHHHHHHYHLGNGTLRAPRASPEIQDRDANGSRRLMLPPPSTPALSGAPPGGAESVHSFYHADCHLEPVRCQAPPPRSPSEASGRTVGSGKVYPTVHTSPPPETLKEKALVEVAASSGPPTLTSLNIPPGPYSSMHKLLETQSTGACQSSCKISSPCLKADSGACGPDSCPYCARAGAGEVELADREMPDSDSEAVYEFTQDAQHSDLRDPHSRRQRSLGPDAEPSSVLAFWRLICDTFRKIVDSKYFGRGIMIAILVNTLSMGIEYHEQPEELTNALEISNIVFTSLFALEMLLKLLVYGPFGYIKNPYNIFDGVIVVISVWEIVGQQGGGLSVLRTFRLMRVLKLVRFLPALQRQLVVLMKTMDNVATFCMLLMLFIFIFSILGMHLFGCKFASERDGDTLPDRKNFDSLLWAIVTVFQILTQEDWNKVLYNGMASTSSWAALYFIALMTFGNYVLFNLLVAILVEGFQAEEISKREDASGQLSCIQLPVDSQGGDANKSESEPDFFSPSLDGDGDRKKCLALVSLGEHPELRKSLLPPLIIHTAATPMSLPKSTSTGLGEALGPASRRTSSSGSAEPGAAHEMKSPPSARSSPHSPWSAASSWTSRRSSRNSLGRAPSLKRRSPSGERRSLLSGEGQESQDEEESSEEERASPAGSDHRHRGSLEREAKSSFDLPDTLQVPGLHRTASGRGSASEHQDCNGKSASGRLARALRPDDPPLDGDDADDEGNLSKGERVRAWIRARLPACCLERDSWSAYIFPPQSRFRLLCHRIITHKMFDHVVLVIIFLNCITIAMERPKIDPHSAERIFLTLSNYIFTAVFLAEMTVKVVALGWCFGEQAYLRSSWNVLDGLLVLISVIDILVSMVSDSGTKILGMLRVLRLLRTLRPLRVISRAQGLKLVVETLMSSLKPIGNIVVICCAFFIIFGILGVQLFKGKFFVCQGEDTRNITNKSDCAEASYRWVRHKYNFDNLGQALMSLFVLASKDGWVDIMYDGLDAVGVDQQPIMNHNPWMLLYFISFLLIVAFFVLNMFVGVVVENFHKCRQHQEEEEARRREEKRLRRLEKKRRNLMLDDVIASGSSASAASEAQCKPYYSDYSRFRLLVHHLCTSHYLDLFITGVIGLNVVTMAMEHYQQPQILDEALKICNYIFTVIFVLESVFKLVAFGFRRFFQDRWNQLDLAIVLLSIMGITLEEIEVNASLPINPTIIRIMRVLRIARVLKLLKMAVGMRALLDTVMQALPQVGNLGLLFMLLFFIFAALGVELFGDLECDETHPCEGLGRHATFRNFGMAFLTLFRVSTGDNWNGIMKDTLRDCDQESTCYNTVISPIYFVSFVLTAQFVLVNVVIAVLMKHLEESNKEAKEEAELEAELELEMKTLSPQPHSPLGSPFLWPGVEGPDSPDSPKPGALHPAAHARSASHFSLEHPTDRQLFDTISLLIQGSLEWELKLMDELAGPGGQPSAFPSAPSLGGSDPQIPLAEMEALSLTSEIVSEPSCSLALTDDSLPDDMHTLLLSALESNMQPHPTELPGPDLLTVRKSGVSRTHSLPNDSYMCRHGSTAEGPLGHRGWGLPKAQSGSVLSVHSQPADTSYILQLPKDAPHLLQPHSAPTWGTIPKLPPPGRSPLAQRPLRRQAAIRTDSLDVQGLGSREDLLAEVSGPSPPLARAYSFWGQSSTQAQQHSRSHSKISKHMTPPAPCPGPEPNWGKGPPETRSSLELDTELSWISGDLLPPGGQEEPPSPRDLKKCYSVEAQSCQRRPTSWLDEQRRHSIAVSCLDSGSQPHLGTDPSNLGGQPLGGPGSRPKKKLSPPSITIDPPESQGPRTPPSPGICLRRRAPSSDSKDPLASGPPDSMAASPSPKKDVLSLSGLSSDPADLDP

Row | inhibition at 10 µM [1] | melting point | Compound
1 | 36% | 221.3 °C | CN1C(=NCCc2ccccc2)SCC1CC(=O)Nc1cc(C(F)(F)F)cc(C(F)(F)F)c1.Cl (stereo not shown) [KHG24216, (2-phenethylimino-3-methyl-1,3-thiazolidine-4-yl)-N-(3,5-ditrifluoromethylphenyl)-acetamide hydrochloride]
2 | 52.8% | 119.6 °C | CN1C(=NCC2CCCCC2)SCC1CC(=O)Nc1cc(C(F)(F)F)cc(C(F)(F)F)c1.Cl (stereo not shown) [KHG24218, (2-cyclohexylmethylimino-3-methyl-1,3-thiazolidine-4-yl)-N-(3,5-ditrifluoromethylphenyl)-acetamide hydrochloride]
3 | 40.8% | 225 °C | CC(C)c1ccc(NC(=O)CC2CSC(=NCCc3ccccc3)N2C)cc1.Cl (stereo not shown) [KHG24220, (2-phenethylimino-3-methyl-1,3-thiazolidine-4-yl)-N-(4-isopropylphenyl)-acetamide hydrochloride]
4 | 34.8% | 250.7 °C | CC(C)c1ccc(NC(=O)CC2CSC(=NCC3CCCCC3)N2C)cc1.Cl (stereo not shown) [KHG24222, (2-cyclohexylmethylimino-3-methyl-1,3-thiazolidine-4-yl)-N-(4-isopropylphenyl)-acetamide hydrochloride]
5 | 32% | 225.5 °C | CN1C(=NCCc2ccccc2)SCC1CC(=O)Nc1ccc(Oc2ccccc2)cc1.Cl (stereo not shown) [KHG24224, (2-phenethylimino-3-methyl-1,3-thiazolidine-4-yl)-N-(4-phenoxyphenyl)-acetamide hydrochloride]
6 | 48.6% | 226.7 °C | CN1C(=NCCc2ccccc2)SCC1CC(=O)Nc1ccc(Cl)cc1.Cl (stereo not shown) [KHG24228, (2-phenethylimino-3-methyl-1,3-thiazolidine-4-yl)-N-(4-chlorophenyl)-acetamide hydrochloride]
7 | 33% | 177.1 °C | CN1C(=NCC2CCCCC2)SCC1CC(=O)Nc1ccc(Cl)cc1.Cl (stereo not shown) [KHG24230, (2-cyclohexylmethylimino-3-methyl-1,3-thiazolidine-4-yl)-N-(4-chlorophenyl)-acetamide hydrochloride]
8 | 33.7% | 196.4 °C | CN1C(=NCCc2ccccc2)SCC1CC(=O)Nc1cc([N+](=O)[O-])ccc1F.Cl (stereo not shown) [KHG24232, (2-phenethylimino-3-methyl-1,3-thiazolidine-4-yl)-N-(2-fluoro-5-nitrophenyl)-acetamide hydrochloride]
9 | 45.4% | 225 °C | CN1C(=NCC2CCCCC2)SCC1CC(=O)Nc1cc([N+](=O)[O-])ccc1F.Cl (stereo not shown) [KHG24234, (2-cyclohexylmethylimino-3-methyl-1,3-thiazolidine-4-yl)-N-(2-fluoro-5-nitrophenyl)-acetamide hydrochloride]
10 | 65% | 226.4 °C | CCN1C(=NC2CCCCC2)SCC1CC(=O)Nc1cc(C(F)(F)F)cc(C(F)(F)F)c1.Cl (stereo not shown) [KHG24261, [2-cyclohexylimino-3-ethyl-1,3-thiazolidine-4-yl]-N-(3,5-ditrifluoromethylphenyl)-acetamide hydrochloride]
11 | 53% | 194.3 °C | CCCCN1C(=NC2CCCCC2)SCC1CC(=O)Nc1ccc(Cl)cc1.Cl (stereo not shown) [KHG24262, [2-cyclohexylimino-3-(n-butyl)-1,3-thiazolidine-4-yl]-N-(4-chlorophenyl)-acetamide hydrochloride]
12 | 52.1% | 215.2 °C | CCCCN1C(=NC2CCCCC2)SCC1CC(=O)Nc1ccc(Br)cc1.Cl (stereo not shown) [KHG24263, [2-cyclohexylimino-3-(n-butyl)-1,3-thiazolidine-4-yl]-N-(4-bromophenyl)-acetamide hydrochloride]
13 | 71% | 197.3 °C | Cl.O=C(CC1CSC(=NC2CCCCC2)N1C1CC1)Nc1cc(C(F)(F)F)cc(C(F)(F)F)c1 (stereo not shown) [KHG24267, [2-cyclohexylimino-3-cyclopropyl-1,3-thiazolidine-4-yl]-N-(3,5-ditrifluoromethylphenyl)-acetamide hydrochloride]
14 | 58.7% | 240.8 °C | Cl.O=C(CC1CSC(=NC2CCCCC2)N1C1CC1)Nc1ccc(C(F)(F)F)cc1 (stereo not shown) [KHG24268, [2-cyclohexylimino-3-cyclopropyl-1,3-thiazolidine-4-yl]-N-(4-trifluoromethylphenyl)-acetamide hydrochloride]
15 | 62.6% | 195.6 °C | CCCCc1ccc(NC(=O)CC2CSC(=NC3CCCCC3)N2C2CC2)cc1.Cl (stereo not shown) [KHG24270, [2-cyclohexylimino-3-cyclopropyl-1,3-thiazolidine-4-yl]-N-(4-n-butylphenyl)-acetamide hydrochloride]
16 | 37.8% | 183.7 °C | Cl.O=C(CC1CSC(=NC2CCCCC2)N1C1CC1)Nc1cc(Cl)ccc1F (stereo not shown) [KHG24271, [2-cyclohexylimino-3-cyclopropyl-1,3-thiazolidine-4-yl]-N-(5-chloro-2-fluorophenyl)-acetamide hydrochloride]

Row | inhibition at 10 µM [1] | melting point | Compound
17 | 37.6% | 194.2 °C | CCc1ccc(NC(=O)CC2CSC(=NC3CCCCC3)N2C2CC2)cc1.Cl (stereo not shown) [KHG24272, [2-cyclohexylimino-3-cyclopropyl-1,3-thiazolidine-4-yl]-N-(4-ethylphenyl)-acetamide hydrochloride]
18 | 48.5% | 188.9 °C | Cl.O=C(CC1CSC(=NC2CCCCC2)N1C1CC1)Nc1ccc(Br)cc1 (stereo not shown) [KHG24273, [2-cyclohexylimino-3-cyclopropyl-1,3-thiazolidine-4-yl]-N-(4-bromophenyl)-acetamide hydrochloride]
19 | 42.8% | 160.3 °C | CCN1C(=NC2CCCCC2)SCC1CC(=O)Nc1ccc(Oc2ccccc2)cc1.Cl (stereo not shown) [KHG24276, [2-cyclohexylimino-3-ethyl-1,3-thiazolidine-4-yl]-N-(4-phenoxyphenyl)-acetamide hydrochloride]
20 | 61.1% | 158.4 °C | CCCCc1ccc(NC(=O)CC2CSC(=NC3CCCCC3)N2CC)cc1.Cl (stereo not shown) [KHG24277, [2-cyclohexylimino-3-ethyl-1,3-thiazolidine-4-yl]-N-(4-n-butylphenyl)-acetamide hydrochloride]
21 | 53.8% | 177 °C | CCN1C(=NC2CCCCC2)SCC1CC(=O)Nc1cc([N+](=O)[O-])ccc1F.Cl (stereo not shown) [KHG24278, [2-cyclohexylimino-3-ethyl-1,3-thiazolidine-4-yl]-N-(2-fluoro-5-nitrophenyl)-acetamide hydrochloride]
22 | 44.1% | 211.9 °C | CCN1C(=NC2CCCCC2)SCC1CC(=O)Nc1ccc(C)cc1.Cl (stereo not shown) [KHG24279, [2-cyclohexylimino-3-ethyl-1,3-thiazolidine-4-yl]-N-(4-methylphenyl)-acetamide hydrochloride]
23 | 54% | 191 °C | CCN1C(=NC2CCCCC2)SCC1CC(=O)Nc1ccc(C(F)(F)F)cc1.Cl (stereo not shown) [KHG24280, [2-cyclohexylimino-3-ethyl-1,3-thiazolidine-4-yl]-N-(4-trifluoromethylphenyl)-acetamide hydrochloride]
24 | 31.4% | 213.3 °C | CCCCN1C(=NC2CCCCC2)SCC1CC(=O)Nc1ccc(Oc2ccccc2)cc1.Cl (stereo not shown) [KHG24281, [2-cyclohexylimino-3-(n-butyl)-1,3-thiazolidine-4-yl]-N-(4-phenoxyphenyl)-acetamide hydrochloride]
25 | 43.6% | 209.1 °C | CCCCc1ccc(NC(=O)CC2CSC(=NC3CCCCC3)N2CCCC)cc1.Cl (stereo not shown) [KHG24282, [2-cyclohexylimino-3-(n-butyl)-1,3-thiazolidine-4-yl]-N-(4-n-butylphenyl)-acetamide hydrochloride]
26 | 51.2% | 215.6 °C | CCCCN1C(=NC2CCCCC2)SCC1CC(=O)Nc1ccc(C(C)C)cc1.Cl (stereo not shown) [KHG24283, [2-cyclohexylimino-3-(n-butyl)-1,3-thiazolidine-4-yl]-N-(4-isopropylphenyl)-acetamide hydrochloride]
27 | 44.6% | 203.5 °C | CCCCN1C(=NC2CCCCC2)SCC1CC(=O)Nc1ccc(F)cc1.Cl (stereo not shown) [KHG24284, [2-cyclohexylimino-3-(n-butyl)-1,3-thiazolidine-4-yl]-N-(4-fluorophenyl)-acetamide hydrochloride]
28 | 46% | 183.4 °C | CCCCN1C(=NC2CCCCC2)SCC1CC(=O)Nc1ccc(C)cc1.Cl (stereo not shown) [KHG24285, [2-cyclohexylimino-3-(n-butyl)-1,3-thiazolidine-4-yl]-N-(4-methylphenyl)-acetamide hydrochloride]
29 | 55.2% | 221.2 °C | CCCCN1C(=NC2CCCCC2)SCC1CC(=O)Nc1ccc(CC)cc1.Cl (stereo not shown) [KHG24286, [2-cyclohexylimino-3-(n-butyl)-1,3-thiazolidine-4-yl]-N-(4-ethylphenyl)-acetamide hydrochloride]
30 | 58.5% | 206.8 °C | CCCN1C(=NC2CCCCC2)SCC1CC(=O)Nc1ccc(Cl)cc1.Cl (stereo not shown) [KHG24287, [2-cyclohexylimino-3-(n-propyl)-1,3-thiazolidine-4-yl]-N-(4-chlorophenyl)-acetamide hydrochloride]
31 | 55% | 219.1 °C | CCCN1C(=NC2CCCCC2)SCC1CC(=O)Nc1ccc(Br)cc1.Cl (stereo not shown) [KHG24288, [2-cyclohexylimino-3-(n-propyl)-1,3-thiazolidine-4-yl]-N-(4-bromophenyl)-acetamide hydrochloride]
32 | 62.2% | 230.3 °C | CCCN1C(=NC2CCCCC2)SCC1CC(=O)Nc1ccc(Oc2ccccc2)cc1.Cl (stereo not shown) [KHG24290, [2-cyclohexylimino-3-(n-propyl)-1,3-thiazolidine-4-yl]-N-(4-phenoxyphenyl)-acetamide hydrochloride]
